Laboratory results: the NIST ThermoML archive (doi:10.1016/j.jct.2012.09.003)

What was measured:
[1] = 298.15 K, 101.33 kPa, Liquid; for viscosity: Capillary tube (Ostwald / Ubbelohde) method; for speed of sound: Linear variable-path acoustic interferometer; for mass density: Vibrating tube method
[2] = cn = amount concentration of the nth substance listed, in mol/dm3; conditions: 298.15 K, 101 kPa, Liquid; for viscosity: Capillary tube (Ostwald / Ubbelohde) method; for speed of sound: Linear variable-path acoustic interferometer; for mass density: Vibrating tube method

CC(=O)N(C)C [N,N-dimethylethanamide]
[1]
Conditions | mass density [kg/m3] | speed of sound [m/s] | viscosity [mPa·s]
– | 936.8 | 1458.5 | 0.923

C[S+](C)[O-] [dimethyl sulfoxide]
[1]
Conditions | mass density [kg/m3] | speed of sound [m/s] | viscosity [mPa·s]
– | 1096.02 | 1490.8 | 1.946

CN(C)C=O [dimethylformamide]
[1]
Conditions | mass density [kg/m3] | speed of sound [m/s] | viscosity [mPa·s]
– | 944.5 | 1451.7 | 0.794

CCCC[P+](CCCC)(CCCC)CCCC.F[B-](F)(F)F [tetrabutylphosphonium tetrafluoroborate] + CC(=O)N(C)C
[2]
Conditions | mass density [kg/m3] | speed of sound [m/s] | viscosity [mPa·s]
c1 = 0.0053 | 937.22 | 1461.8 | 0.93
c1 = 0.0215 | 938.69 | 1473.5 | 0.949
c1 = 0.0377 | 940.34 | 1486.9 | 0.968
c1 = 0.0541 | 942.13 | 1501.6 | 0.987
c1 = 0.0705 | 944.01 | 1517.8 | 1.007
c1 = 0.0871 | 945.94 | 1536.3 | 1.028

CCCC[P+](CCCC)(CCCC)CCCC.F[B-](F)(F)F [tetrabutylphosphonium tetrafluoroborate] + CN(C)C=O
[2]
Conditions | mass density [kg/m3] | speed of sound [m/s] | viscosity [mPa·s]
c1 = 0.0053 | 944.98 | 1455.6 | 0.802
c1 = 0.0213 | 946.61 | 1468.7 | 0.82
c1 = 0.0374 | 948.4 | 1483.2 | 0.837
c1 = 0.0536 | 950.34 | 1498.6 | 0.854
c1 = 0.0699 | 952.4 | 1515.4 | 0.871
c1 = 0.0729 | – | – | 0.889
c1 = 0.0863 | 954.5 | 1533.8 | –

CCCC[P+](CCCC)(CCCC)CCCC.F[B-](F)(F)F [tetrabutylphosphonium tetrafluoroborate] + C[S+](C)[O-]
[2]
Conditions | mass density [kg/m3] | speed of sound [m/s] | viscosity [mPa·s]
c1 = 0.0046 | 1096.05 | 1492.7 | 1.952
c1 = 0.0184 | 1096.4 | 1501.5 | 1.982
c1 = 0.0323 | 1097.02 | 1513.7 | 2.015
c1 = 0.0463 | 1097.84 | 1527.9 | 2.049
c1 = 0.0604 | 1098.83 | 1544.5 | 2.085
c1 = 0.0746 | 1099.98 | 1564.6 | 2.12
